In US9974775B2, “Substituted imidazoles as N-type calcium channel blockers” (Janssen Pharmaceutica NV, priority 2013, dated 2018):
Each block holds one compound with its values, some of them ahead of it.

Molecular target: human N-type Ca channel (Homo sapiens, UniProt Q00975)
Assay: Measurement of electrophysiological response (QPatch)
Conditions: for IC50: concentration range 0.3-10 μM
[1] = N Type IC50 Data Qpatch Pulse = 1, Pulse = 1
[2] = N Type IC50 Data Qpatch Pulse = 15, Pulse = 15
[3] = concentration range 0.01-0.3 μM

human N-type Ca channel, sequence (Q00975 whole entry): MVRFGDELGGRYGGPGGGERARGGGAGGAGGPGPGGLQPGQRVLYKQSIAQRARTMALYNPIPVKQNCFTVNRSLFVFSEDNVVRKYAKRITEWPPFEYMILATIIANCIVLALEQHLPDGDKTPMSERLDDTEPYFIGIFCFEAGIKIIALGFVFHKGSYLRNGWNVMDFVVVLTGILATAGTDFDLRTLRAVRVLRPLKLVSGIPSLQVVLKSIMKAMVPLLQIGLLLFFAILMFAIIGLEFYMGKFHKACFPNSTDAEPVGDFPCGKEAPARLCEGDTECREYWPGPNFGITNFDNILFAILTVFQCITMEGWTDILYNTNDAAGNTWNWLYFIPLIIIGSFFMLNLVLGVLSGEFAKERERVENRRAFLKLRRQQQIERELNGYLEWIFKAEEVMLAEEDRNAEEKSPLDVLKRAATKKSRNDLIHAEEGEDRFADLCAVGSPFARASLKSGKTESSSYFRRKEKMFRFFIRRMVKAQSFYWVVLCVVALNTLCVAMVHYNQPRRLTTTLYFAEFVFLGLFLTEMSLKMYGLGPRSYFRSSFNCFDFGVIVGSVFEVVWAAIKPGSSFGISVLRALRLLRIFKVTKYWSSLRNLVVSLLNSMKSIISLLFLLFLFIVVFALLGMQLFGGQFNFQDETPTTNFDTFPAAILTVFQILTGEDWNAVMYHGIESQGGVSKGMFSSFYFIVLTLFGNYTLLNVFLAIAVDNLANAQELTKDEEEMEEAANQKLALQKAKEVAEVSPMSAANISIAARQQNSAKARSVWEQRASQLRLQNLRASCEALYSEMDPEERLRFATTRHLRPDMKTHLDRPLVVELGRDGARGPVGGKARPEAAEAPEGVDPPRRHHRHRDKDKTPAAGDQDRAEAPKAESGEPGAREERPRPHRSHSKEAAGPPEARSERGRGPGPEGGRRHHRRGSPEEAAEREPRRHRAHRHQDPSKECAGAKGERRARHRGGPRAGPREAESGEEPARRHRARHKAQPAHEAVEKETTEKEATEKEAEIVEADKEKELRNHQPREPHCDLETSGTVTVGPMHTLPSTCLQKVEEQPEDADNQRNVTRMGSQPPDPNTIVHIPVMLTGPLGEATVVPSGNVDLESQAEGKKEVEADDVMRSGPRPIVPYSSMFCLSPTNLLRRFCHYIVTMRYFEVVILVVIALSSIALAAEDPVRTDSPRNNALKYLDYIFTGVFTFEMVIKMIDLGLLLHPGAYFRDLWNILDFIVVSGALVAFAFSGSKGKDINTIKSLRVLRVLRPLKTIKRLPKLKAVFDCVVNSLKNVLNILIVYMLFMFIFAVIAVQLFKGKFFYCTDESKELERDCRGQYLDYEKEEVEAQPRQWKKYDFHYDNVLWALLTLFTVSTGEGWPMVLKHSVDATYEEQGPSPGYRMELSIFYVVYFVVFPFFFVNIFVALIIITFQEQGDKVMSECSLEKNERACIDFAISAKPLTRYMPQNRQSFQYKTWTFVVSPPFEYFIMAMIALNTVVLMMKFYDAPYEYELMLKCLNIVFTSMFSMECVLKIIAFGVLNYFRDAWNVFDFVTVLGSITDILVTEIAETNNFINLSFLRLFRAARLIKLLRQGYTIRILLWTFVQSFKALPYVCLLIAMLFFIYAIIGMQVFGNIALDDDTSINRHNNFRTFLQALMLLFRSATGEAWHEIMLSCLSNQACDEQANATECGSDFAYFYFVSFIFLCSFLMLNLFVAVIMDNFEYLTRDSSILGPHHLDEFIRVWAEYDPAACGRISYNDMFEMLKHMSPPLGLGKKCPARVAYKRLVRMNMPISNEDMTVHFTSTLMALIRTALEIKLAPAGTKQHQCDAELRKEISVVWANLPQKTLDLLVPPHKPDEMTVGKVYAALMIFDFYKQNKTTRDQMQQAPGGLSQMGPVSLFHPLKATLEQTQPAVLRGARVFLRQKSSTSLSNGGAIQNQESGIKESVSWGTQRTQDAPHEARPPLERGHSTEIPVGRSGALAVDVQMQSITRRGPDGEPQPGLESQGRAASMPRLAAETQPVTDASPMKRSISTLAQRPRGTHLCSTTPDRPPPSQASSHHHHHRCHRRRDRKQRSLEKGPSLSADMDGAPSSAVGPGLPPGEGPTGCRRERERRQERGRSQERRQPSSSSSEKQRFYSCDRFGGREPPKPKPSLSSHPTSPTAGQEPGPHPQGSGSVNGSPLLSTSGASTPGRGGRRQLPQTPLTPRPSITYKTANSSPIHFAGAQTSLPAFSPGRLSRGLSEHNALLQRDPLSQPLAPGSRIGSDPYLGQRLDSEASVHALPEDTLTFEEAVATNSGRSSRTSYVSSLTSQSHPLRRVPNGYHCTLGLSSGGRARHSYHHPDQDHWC
human N-type Ca channel, sequence (P54284 whole entry partner): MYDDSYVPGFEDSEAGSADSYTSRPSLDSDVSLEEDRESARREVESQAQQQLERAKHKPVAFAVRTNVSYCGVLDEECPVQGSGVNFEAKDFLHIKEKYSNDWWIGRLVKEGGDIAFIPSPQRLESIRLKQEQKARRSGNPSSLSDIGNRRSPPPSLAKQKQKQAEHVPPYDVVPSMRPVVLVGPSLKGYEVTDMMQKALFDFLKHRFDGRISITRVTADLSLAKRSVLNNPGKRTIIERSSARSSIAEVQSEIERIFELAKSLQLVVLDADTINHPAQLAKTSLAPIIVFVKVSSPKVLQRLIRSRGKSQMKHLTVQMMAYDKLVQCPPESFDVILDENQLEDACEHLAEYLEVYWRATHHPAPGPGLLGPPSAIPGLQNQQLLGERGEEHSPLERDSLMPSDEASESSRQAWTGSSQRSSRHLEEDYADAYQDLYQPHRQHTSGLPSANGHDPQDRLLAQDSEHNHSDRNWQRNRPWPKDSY
human N-type Ca channel, sequence (P54289 25-956 partner limits assumed): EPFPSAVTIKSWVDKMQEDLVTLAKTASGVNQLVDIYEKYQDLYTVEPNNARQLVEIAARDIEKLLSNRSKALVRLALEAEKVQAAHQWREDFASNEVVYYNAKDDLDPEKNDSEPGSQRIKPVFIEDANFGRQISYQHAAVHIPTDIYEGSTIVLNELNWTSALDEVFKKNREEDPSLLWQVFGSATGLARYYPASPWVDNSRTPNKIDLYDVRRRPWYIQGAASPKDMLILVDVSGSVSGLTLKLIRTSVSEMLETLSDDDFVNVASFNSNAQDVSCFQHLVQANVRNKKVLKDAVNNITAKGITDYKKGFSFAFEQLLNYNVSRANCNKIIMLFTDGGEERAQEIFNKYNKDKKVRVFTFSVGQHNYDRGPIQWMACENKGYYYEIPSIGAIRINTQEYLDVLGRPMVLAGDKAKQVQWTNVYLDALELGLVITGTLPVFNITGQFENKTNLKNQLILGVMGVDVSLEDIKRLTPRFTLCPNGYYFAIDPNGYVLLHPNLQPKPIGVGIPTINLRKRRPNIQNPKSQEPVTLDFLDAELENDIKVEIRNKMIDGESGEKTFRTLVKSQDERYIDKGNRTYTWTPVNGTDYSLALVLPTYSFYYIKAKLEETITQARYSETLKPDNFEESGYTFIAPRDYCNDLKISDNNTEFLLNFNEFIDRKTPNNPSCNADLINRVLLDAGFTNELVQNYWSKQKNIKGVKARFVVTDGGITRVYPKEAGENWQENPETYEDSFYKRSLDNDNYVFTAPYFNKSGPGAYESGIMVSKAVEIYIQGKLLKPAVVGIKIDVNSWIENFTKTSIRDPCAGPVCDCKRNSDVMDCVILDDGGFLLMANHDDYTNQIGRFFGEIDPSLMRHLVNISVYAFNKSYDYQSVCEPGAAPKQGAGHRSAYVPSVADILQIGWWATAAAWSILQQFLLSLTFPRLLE
human N-type Ca channel, sequence (P54289 957-1103 partner limits assumed): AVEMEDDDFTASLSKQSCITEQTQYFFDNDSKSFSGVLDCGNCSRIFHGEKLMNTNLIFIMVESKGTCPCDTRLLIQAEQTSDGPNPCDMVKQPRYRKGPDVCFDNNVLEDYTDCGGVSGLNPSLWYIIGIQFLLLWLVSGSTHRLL
Method: The recombinant cell line described above was used in the measurement of electrophysiological properties with QPatch (Sophion). […] Prior to the experiment, the flasks were moved to 30° C. and incubated for 48-72 hrs. On the day of assaying, cells were detached and harvested. The cell pellet was re-suspended in SMF4HEK (HyClone)/25 mM HEPS at 2-5 million/mL and placed on the QStirrer of the QPatch for 30-60 min prior to the start of the assay. […] Microtiter-Plate/Reference Buffer contained 140 mM TEA-Cl, 10 mM BaCl2, 0.8 mM MgCl2, 10 mM HEPES pH˜7.4 adjusted with TEA-OH/HCl, and ˜300 mOsm. Cells were transferred to a QPatch 48 plate and gigaseal was formed. The plate was perfused with intracellular and extracellular buffer. […] In brief, cells were depolarized from resting potential of −80 mV to +20 mV and current was recorded. Data was plotted as percent inhibition vs concentration of the compound and IC50 values were generated using Graphpad Prism non-linear regression analysis.

- IC50 [1]: ≥ 10 µM
SMILES: COc1ccccc1-c1nc(C2CC(C)(C)OC(C)(C)C2)cn1-c1ccc(F)cc1 [Cpd 4, 1-(4-Fluorophenyl)-2-(2-methoxyphenyl)-4-(2,2,6,6-tetramethyltetrahydro-2H-pyran-4-yl)-1H-imidazole]

- IC50 [2]: ≥ 10 µM
SMILES: COc1ccccc1-c1nc(C2CC(C)(C)OC(C)(C)C2)cn1-c1ccc(C)nc1 [Cpd 5, 5-[2-(2-Methoxyphenyl)-4-(2,2,6,6-tetramethyltetrahydro-2H-pyran-4-yl)-1H-imidazol-1-yl]-2-methylpyridine]

- IC50 [1]: ≥ 10 µM
- IC50 [2]: ≥ 10 µM
SMILES: COc1ccccc1-c1nc(C2CC(C)(C)OC(C)(C)C2)cn1-c1ccc(C)cn1 [Cpd 6, 2-[2-(2-Methoxyphenyl)-4-(2,2,6,6-tetramethyltetrahydro-2H-pyran-4-yl)-1H-imidazol-1-yl]-5-methylpyridine]

- Qpatch Pulse = 1 (percent inhibition) (concentration range 0.01-1 μM): 46%
- Qpatch Pulse = 15 (percent inhibition) (concentration range 0.01-1 μM): 37%
SMILES: COc1ncccc1-c1nc(C2CC(C)(C)OC(C)(C)C2)cn1Cc1cccc(Cl)c1 [Cpd 9, 3-(1-(3-chlorobenzyl)-4-(2,2,6,6-tetramethyltetrahydro-2H-pyran-4-yl)-1H-imidazol-2-yl)-2-methoxypyridine]

- N Type IC50 Data Qpatch Pulse = 1 [3]: poor fit
- N Type IC50 Data Qpatch Pulse = 15 [3]: poor fit
SMILES: COc1ncccc1-c1nc(C2CC(C)(C)OC(C)(C)C2)cn1-c1ccc(C#N)c(C)c1 [Cpd 15, 4-[2-(2-Methoxypyridin-3-yl)-4-(2,2,6,6-tetramethyltetrahydro-2H-pyran-4-yl)-1H-imidazol-1-yl]-2-methylbenzonitrile]

- N Type IC50 Data Qpatch Pulse = 1 [3]: poor fit
- N Type IC50 Data Qpatch Pulse = 15 [3]: poor fit
SMILES: COc1ncccc1-c1nc(C2CC(C)(C)OC(C)(C)C2)cn1-c1ccc(F)c(F)c1F [Cpd 16, 2-methoxy-3-(4-(2,2,6,6-tetramethyltetrahydro-2H-pyran-4-yl)-1-(2,3,4-trifluorophenyl)-1H-imidazol-2-yl)pyridine]

- Qpatch Pulse = 15 (percent inhibition) (concentration range 0.01-1 μM): 39%
SMILES: COc1ccccc1-c1nc(C2CC(C)(C)OC(C)(C)C2)cn1-c1ccc(C#N)c(C)c1 [Cpd 21, 4-[2-(2-Methoxyphenyl)-4-(2,2,6,6-tetramethyltetrahydro-2H-pyran-4-yl)-1H-imidazol-1-yl]-2-methylbenzonitrile]

- Qpatch Pulse = 1 (percent inhibition) (concentration range 0.01-1 μM): 21%
SMILES: COc1ccc(-n2cc(C3CC(C)(C)OC(C)(C)C3)nc2-c2cccnc2OC)cc1F [Cpd 23, 3-[1-(3-Fluoro-4-methoxyphenyl)-4-(2,2,6,6-tetramethyltetrahydro-2H-pyran-4-yl)-1H-imidazol-2-yl]-2-methoxypyridine]

- Qpatch Pulse = 1 (percent inhibition) (concentration range 0.01-1 μM): 29%
SMILES: COc1cc(-n2cc(C3CC(C)(C)OC(C)(C)C3)nc2-c2cccnc2OC)ccc1F [Cpd 24, 3-[1-(4-Fluoro-3-methoxyphenyl)-4-(2,2,6,6-tetramethyltetrahydro-2H-pyran-4-yl)-1H-imidazol-2-yl]-2-methoxypyridine]

- N Type IC50 Data Qpatch Pulse = 1 [3]: poor fit
SMILES: COc1ncccc1-c1nc(C2CC(C)(C)OC(C)(C)C2)cn1Cc1ccccc1Cl [Cpd 27, 3-[1-(2-Chlorobenzyl)-4-(2,2,6,6-tetramethyltetrahydro-2H-pyran-4-yl)-1H-imidazol-2-yl]-2-methoxypyridine]

- N Type IC50 Data Qpatch Pulse = 1 [3]: poor fit
- N Type IC50 Data Qpatch Pulse = 15 [3]: poor fit
SMILES: COc1ncccc1-c1nc(C2CC(C)(C)OC(C)(C)C2)cn1Cc1ccc(Cl)cc1 [Cpd 28, 3-[1-(4-Chlorobenzyl)-4-(2,2,6,6-tetramethyltetrahydro-2H-pyran-4-yl)-1H-imidazol-2-yl]-2-methoxypyridine]

SMILES: COc1ncccc1-c1nc(C2CC(C)(C)OC(C)(C)C2)cn1-c1ccc(C#N)c(C(F)(F)F)c1 [Cpd 29, 4-(2-(2-methoxypyridin-3-yl)-4-(2,2,6,6-tetramethyltetrahydro-2H-pyran-4-yl)-1H-imidazol-1-yl)-2-(trifluoromethyl)benzonitrile]
- N Type IC50 Data Qpatch Pulse = 1 [3]: poor fit
- N Type IC50 Data Qpatch Pulse = 15 [3]: poor fit

- N Type IC50 Data Qpatch Pulse = 15 [3]: poor fit
SMILES: COc1ncccc1-c1nc(C2CC(C)(C)OC(C)(C)C2)cn1-c1cccc(F)c1F [Cpd 31, 3-(1-(2,3-difluorophenyl)-4-(2,2,6,6-tetramethyltetrahydro-2H-pyran-4-yl)-1H-imidazol-2-yl)-2-methoxypyridine]

- Qpatch Pulse = 1 (percent inhibition) (concentration range 0.01-1 μM): 38%
SMILES: COc1cc(-n2cc(C3CC(C)(C)OC(C)(C)C3)nc2-c2ccccc2OC)ccc1C#N [Cpd 34, 2-Methoxy-4-[2-(2-methoxyphenyl)-4-(2,2,6,6-tetramethyltetrahydro-2H-pyran-4-yl)-1H-imidazol-1-yl]benzonitrile]

- IC50 [1]: ≥ 10 µM
SMILES: COc1ncccc1-c1nc(C2CC(C)(C)OC(C)(C)C2)cn1-c1ccc(F)c(Cl)c1 [Cpd 46, 3-[1-(3-Chloro-4-fluorophenyl)-4-(2,2,6,6-tetramethyltetrahydro-2H-pyran-4-yl)-1H-imidazol-2-yl]-2-methoxypyridine]

- N Type IC50 Data Qpatch Pulse = 1 (concentration range 0.01-1 μM): Poor fit
- N Type IC50 Data Qpatch Pulse = 15 (concentration range 0.01-1 μM): Poor fit
SMILES: COc1ncccc1-c1nc(C2CC(C)(C)OC(C)(C)C2)cn1-c1ccc(C(F)(F)F)nc1 [Cpd 54, 2-Methoxy-3-{4-(2,2,6,6-tetramethyltetrahydro-2H-pyran-4-yl)-1-[6-(trifluoromethyl)pyridin-3-yl]-1H-imidazol-2-yl}pyridine]

- Qpatch Pulse = 1 (percent inhibition) (concentration range 0.01-1 μM): 48%
SMILES: CC1(C)CC(c2cn(-c3ccc(Cl)cc3)c(CC3CC3)n2)CC(C)(C)O1 [Cpd 55, 1-(4-Chlorophenyl)-2-(cyclopropylmethyl)-4-(2,2,6,6-tetramethyltetrahydro-2H-pyran-4-yl)-1H-imidazole]

- N Type IC50 Data Qpatch Pulse = 1 [3]: poor fit
- N Type IC50 Data Qpatch Pulse = 15 [3]: poor fit
SMILES: CC1(C)CC(c2cn(-c3ccc(C(F)(F)F)nc3)c(CC3CC3)n2)CC(C)(C)O1 [Cpd 59, 5-[2-(Cyclopropylmethyl)-4-(2,2,6,6-tetramethyltetrahydro-2H-pyran-4-yl)-1H-imidazol-1-yl]-2-(trifluoromethyl)pyridine]

- N Type IC50 Data Qpatch Pulse = 15 [3]: poor fit
SMILES: CCOc1nccnc1-c1nc(C2CC(C)(C)OC(C)(C)C2)cn1-c1ccc(Cl)cc1 [Cpd 60, 2-[1-(4-Chlorophenyl)-4-(2,2,6,6-tetramethyltetrahydro-2H-pyran-4-yl)-1H-imidazol-2-yl]-3-ethoxypyrazine]

- IC50 [1]: ≥ 10 µM
SMILES: COc1cnccc1-c1nc(C2CC(C)(C)OC(C)(C)C2)cn1-c1ccc(Cl)cc1 [Cpd 66, 4-(1-(4-chlorophenyl)-4-(2,2,6,6-tetramethyltetrahydro-2H-pyran-4-yl)-1H-imidazol-2-yl)-3-methoxypyridine]

- IC50 [1]: ≥ 10 µM
SMILES: COc1ccncc1-c1nc(C2CC(C)(C)OC(C)(C)C2)cn1-c1ccc(Cl)cc1 [Cpd 68, 3-(1-(4-chlorophenyl)-4-(2,2,6,6-tetramethyltetrahydro-2H-pyran-4-yl)-1H-imidazol-2-yl)-4-methoxypyridine]

- N Type IC50 Data Qpatch Pulse = 15 (concentration range 0.01-1 μM): poor fit
SMILES: COc1ncccc1-c1nc(C2CC(C)(C)OC(C)(C)C2)cn1-c1cc(F)ccc1F [Cpd 71, 3-(1-(2,5-difluorophenyl)-4-(2,2,6,6-tetramethyltetrahydro-2H-pyran-4-yl)-1H-imidazol-2-yl)-2-methoxypyridine]

- N Type IC50 Data Qpatch Pulse = 1 (concentration range 0.01-1 μM): poor fit
- N Type IC50 Data Qpatch Pulse = 15 (concentration range 0.01-1 μM): poor fit
SMILES: COc1ncccc1-c1nc(C2CC(C)(C)OC(C)(C)C2)cn1-c1cc(F)cc(F)c1 [Cpd 72, 3-(1-(3,5-difluorophenyl)-4-(2,2,6,6-tetramethyltetrahydro-2H-pyran-4-yl)-1H-imidazol-2-yl)-2-methoxypyridine]

- N Type IC50 Data Qpatch Pulse = 1 (concentration range 0.01-1 μM): poor fit
- N Type IC50 Data Qpatch Pulse = 15 (concentration range 0.01-1 μM): poor fit
SMILES: COc1ncccc1-c1nc(C2CC(C)(C)OC(C)(C)C2)cn1-c1cc(F)cc(C#N)c1 [Cpd 73, 3-fluoro-5-(2-(2-methoxypyridin-3-yl)-4-(2,2,6,6-tetramethyltetrahydro-2H-pyran-4-yl)-1H-imidazol-1-yl)benzonitrile]

- Qpatch Pulse = 1 (percent inhibition) (concentration range 0.01-1 μM): 58%
SMILES: COc1ncccc1-c1nc(C2CC(C)(C)OC(C)(C)C2)cn1-c1ccc(C#N)c(Cl)c1 [Cpd 78, 2-Chloro-4-[2-(2-methoxypyridin-3-yl)-4-(2,2,6,6-tetramethyltetrahydro-2H-pyran-4-yl)-1H-imidazol-1-yl]benzonitrile]

- N Type IC50 Data Qpatch Pulse = 1 [3]: poor fit
- N Type IC50 Data Qpatch Pulse = 15 [3]: poor fit
SMILES: COc1ncccc1-c1nc(C2CC(C)(C)OC(C)(C)C2)cn1-c1cc(F)c(C#N)c(F)c1 [Cpd 82, 2,6-difluoro-4-(2-(2-methoxypyridin-3-yl)-4-(2,2,6,6-tetramethyltetrahydro-2H-pyran-4-yl)-1H-imidazol-1-yl)benzonitrile]

SMILES: COc1ccccc1-c1nc(C2CC(C)(C)OC(C)(C)C2)cn1-c1c(F)cc(C#N)cc1F [Cpd 83, 3,5-difluoro-4-(2-(2-methoxyphenyl)-4-(2,2,6,6-tetramethyltetrahydro-2H-pyran-4-yl)-1H-imidazol-1-yl)benzonitrile]
- N Type IC50 Data Qpatch Pulse = 1 [3]: poor fit
- N Type IC50 Data Qpatch Pulse = 15 [3]: poor fit

- Qpatch Pulse = 1 (percent inhibition) (concentration range 0.01-1 μM): 39%
SMILES: COc1ncccc1-c1nc(C2CC(C)(C)OC(C)(C)C2)cn1-c1ccc(Cl)c(C#N)c1 [Cpd 84, 2-Chloro-5-[2-(2-methoxypyridin-3-yl)-4-(2,2,6,6-tetramethyltetrahydro-2H-pyran-4-yl)-1H-imidazol-1-yl]benzonitrile]

- Qpatch Pulse = 1 (percent inhibition) (concentration range 0.01-1 μM): 45%
SMILES: COc1ccc(-n2cc(C3CC(C)(C)OC(C)(C)C3)nc2-c2cccnc2OC)cc1C#N [Cpd 85, 2-Methoxy-5-[2-(2-methoxypyridin-3-yl)-4-(2,2,6,6-tetramethyltetrahydro-2H-pyran-4-yl)-1H-imidazol-1-yl]benzonitrile]

- Qpatch Pulse = 1 (percent inhibition) (concentration range 0.01-1 μM): 28%
SMILES: COc1ncncc1-c1nc(C2CC(C)(C)OC(C)(C)C2)cn1-c1ccc(C#N)cc1 [Cpd 86, 4-[2-(4-Methoxypyrimidin-5-yl)-4-(2,2,6,6-tetramethyltetrahydro-2H-pyran-4-yl)-1H-imidazol-1-yl]benzonitrile]

- N Type IC50 Data Qpatch Pulse = 1 [3]: poor fit
- N Type IC50 Data Qpatch Pulse = 15 [3]: poor fit
SMILES: COc1nccnc1-c1nc(C2CC(C)(C)OC(C)(C)C2)cn1-c1ccc(C#N)cc1 [Cpd 87, 4-[2-(3-Methoxypyrazin-2-yl)-4-(2,2,6,6-tetramethyltetrahydro-2H-pyran-4-yl)-1H-imidazol-1-yl]benzonitrile]
